Measured values taken from US7544667B2, “Hypocholesterolemic compounds” (Lipideon Biotechnology AG, priority 2003, dated 2009).

Test system: rabbit brush border membrane vesicles (BBMV)
Assay: inhibition of cholesterol uptake in rabbit brush border membrane vesicles (BBMV)
Assay type: biochemical
Conditions: applied in donor SUV (9 mol %); scavenger receptor-mediated uptake of radiolabelled cholesterol ester from donor particles into BBMV bilayer
Experimental: The compounds of the invention and ezetimibe (commercially obtained or prepared according to Wu, G. Z. et al., J. Org. Chem. 1999) together with the glucuronide (the metabolite of ezetimibe, prepared according to Vaccaro, W. D.; Davis, H. R. Bioorg. Med. Chem. Lett. 1998, 8, 313-318) as appropriate reference compounds were evaluated by well-established methods to determine their inhibition of cholesterol uptake in rabbit brush border membrane vesicles (BBMV) (Table 1). Briefly, the scavenger receptor-mediated uptake of radiolabelled cholesterol ester from the loaded donor particles into the BBMV bilayer was measured in the presence of various compounds of the invention and appropriate reference compounds (Hauser, H. et al., Biochemistry 1998, 37, 17843-17850; Werder, M. et al., Biochemistry 2001, 40, 11643-11650; Boffelli, D. et al., FEBS Lett. 1997, 411, 7-11.)

Structure (SMILES) | Inhibition in (%)
O=S(=O)(Oc1ccc([C@@H]2[C@@H](CC[C@H](O)c3ccc(F)cc3)CN2c2ccc(F)cc2)cc1)c1ccccc1 [XV] | 19 ± 3%
O=C1[C@H](CC[C@H](O)c2ccc(F)cc2)[C@@H](c2ccc(OS(=O)(=O)CC3OC(CO)C(O)C(O)C3O)cc2)N1c1ccc(F)cc1 (some centres unmarked) [X] | 15 ± 3%
O=C(O)[C@H]1O[C@@H](Oc2ccc([C@@H]3[C@@H](CC[C@H](O)c4ccc(F)cc4)C(=O)N3c3ccc(F)cc3)cc2)[C@H](O)[C@@H](O)[C@@H]1O [Glucuronide, reference compound] | 19 ± 4%
COC1OC(CS(=O)(=O)Oc2ccc([C@@H]3[C@@H](CC[C@H](O)c4ccc(F)cc4)C(=O)N3c3ccc(F)cc3)cc2)C(O)C(O)C1O (some centres unmarked) [IXb] | 20 ± 5%
O=C(O)c1cc(S(=O)(=O)Oc2ccc([C@@H]3[C@@H](CC[C@H](O)c4ccc(F)cc4)C(=O)N3c3ccc(F)cc3)cc2)ccc1O [XVI] | 21 ± 5%
O=C1[C@H](CC[C@H](O)c2ccc(F)cc2)[C@@H](c2ccc(O)cc2)N1c1ccc(F)cc1 [Ezetimibe, reference compound] | 16 ± 4%
CS(=O)(=O)Oc1ccc([C@@H]2[C@@H](CC[C@H](O)c3ccc(F)cc3)CN2c2ccc(F)cc2)cc1 [VII] | 22 ± 2%
O=C1[C@H](CC[C@H](O)c2ccc(F)cc2)[C@@H](c2ccc(OS(=O)(=O)CC3OC(CO)C(OC4OC(CO)C(O)C(O)C4O)C(O)C3O)cc2)N1c1ccc(F)cc1 (some centres unmarked) [XVIII] | 41 ± 4%
CS(=O)(=O)Oc1ccc([C@@H]2[C@@H](CC[C@H](O)c3ccc(F)cc3)C(=O)N2c2ccc(F)cc2)cc1 [VI] | 30 ± 4%
O=C1O[C@H](CC[C@H](O)c2ccc(F)cc2)[C@@H](c2ccc(O)cc2)N1c1ccc(F)cc1 [XXI] | 19 ± 2%
O=C1[C@H](CC[C@H](O)c2ccc(F)cc2)[C@@H](c2ccc(OS(=O)(=O)c3ccccc3)cc2)N1c1ccc(F)cc1 [XIV] | 26 ± 3%
O=C1[C@H](CC[C@H](O)c2ccc(F)cc2)[C@@H](c2ccc(OCC3OC(CO)C(O)C(O)C3O)cc2)N1c1ccc(F)cc1 (some centres unmarked) [VIII] | 15 ± 3%
O=C1[C@H](CC[C@H](O)c2ccc(F)cc2)[C@@H](c2ccc(OCC3OC(CO)C(OC4OC(CO)C(O)C(O)C4O)C(O)C3O)cc2)N1c1ccc(F)cc1 (some centres unmarked) [XVII] | 28 ± 4%
COC1OC(CS(=O)(=O)Oc2ccc([C@@H]3[C@@H](CC[C@H](O)c4ccc(F)cc4)CN3c3ccc(F)cc3)cc2)C(O)C(O)C1O (some centres unmarked) [IX] | 27 ± 4%
